What follows are compounds tested against B-Raf (V600E)-kinase (Homo sapiens (Human), UniProt P15056, V600E) (assay: Kinase test B-RAF (V600E)). Conditions: B-RAF (V600E) kinase test, 250 μM ATP.
Assay type: biochemical
In short: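 Read-out is DELFIA europium TRF of phospho-MEK (Ser217/221) on biotinylated MEK1 bound to streptavidin plates, IC50 from dose-response. Reaction ran 60 min at RT with 250 μM ATP, after a 24 h RT preincubation of compound with B-Raf (V600E) kinase, 5% DMSO final.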

B-Raf (V600E)-kinase, sequence (P15056 whole entry V600E): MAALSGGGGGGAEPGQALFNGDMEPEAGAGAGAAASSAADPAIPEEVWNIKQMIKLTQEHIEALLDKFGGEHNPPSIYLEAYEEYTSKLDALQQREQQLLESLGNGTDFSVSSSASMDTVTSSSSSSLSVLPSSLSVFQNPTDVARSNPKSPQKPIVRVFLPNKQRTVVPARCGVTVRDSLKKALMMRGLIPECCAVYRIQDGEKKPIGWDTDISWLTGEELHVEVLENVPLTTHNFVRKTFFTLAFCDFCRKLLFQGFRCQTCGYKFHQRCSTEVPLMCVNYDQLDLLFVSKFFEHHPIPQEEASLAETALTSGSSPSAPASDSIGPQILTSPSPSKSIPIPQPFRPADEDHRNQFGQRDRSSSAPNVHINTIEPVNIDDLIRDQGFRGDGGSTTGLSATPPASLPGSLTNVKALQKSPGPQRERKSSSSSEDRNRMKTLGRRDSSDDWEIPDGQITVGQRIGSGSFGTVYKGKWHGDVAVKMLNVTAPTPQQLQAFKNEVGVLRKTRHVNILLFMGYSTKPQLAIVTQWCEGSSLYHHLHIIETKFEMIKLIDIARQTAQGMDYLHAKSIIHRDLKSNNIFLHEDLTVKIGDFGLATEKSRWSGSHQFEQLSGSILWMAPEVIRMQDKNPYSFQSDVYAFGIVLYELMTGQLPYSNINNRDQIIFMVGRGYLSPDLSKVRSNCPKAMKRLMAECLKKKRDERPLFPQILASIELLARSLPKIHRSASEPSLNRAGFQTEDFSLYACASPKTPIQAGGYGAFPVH

| IC50 [nM] | Structure (SMILES) |
| --- | --- |
| 9 | COc1ccc(C(F)(F)F)cc1NC(=O)c1ccc(C)c(Nc2ncnc3cnc(N4CCCCC4)nc23)c1 [III-262] |
| 14 | CN(CCN1CCCC1)c1ncc2ncnc(Nc3cc(C(=O)Nc4cc(C(C)(C)C)on4)ccc3F)c2n1 [III-317] |
| 1 | Cc1ccc(C(=O)Nc2cc(C(C)(C)C)on2)cc1Nc1ncnc2c(N)nc(N3CCN(C4CCN(C)CC4)CC3)nc12 [I-10] |
| 571 | Cc1ccc(C(=O)NCc2ccc(C(C)(C)C)cc2)cc1Nc1ncnc2cnc(N(C)CCN(C)C)nc12 [III-233] |
| 2 | Cc1ccc(C(=O)Nc2cc(C(C)(C)C)n[nH]2)cc1Nc1ncnc2c(N)nc(N3CCN4CCCC4C3)nc12 (centres unmarked) [I-34] |
| 2 | COCCN(C)c1ncc2ncnc(Nc3cc(C(=O)Nc4ccc(OC)c(C(F)(F)F)c4)ccc3Cl)c2n1 [III-4] |
| 8 | CC(C)(C)c1cc(NC(=O)c2ccc(Cl)c(Nc3ncnc4cnc(N5CCCCCC5)nc34)c2)no1 [III-68] |
| 1 | Cc1ccc(NC(=O)c2cccc(C(C)(C)C#N)c2)cc1Nc1ncnc2cnc(NC3CCN(C)CC3)nc12 [IV-28] |
| 2 | COc1ccc(C(F)(F)F)cc1NC(=O)c1ccc(C)c(Nc2ncnc3cnc(N4CC[C@H](F)C4)nc23)c1 [III-288] |
| 5 | COc1ccc(C(F)(F)F)cc1NC(=O)c1ccc(C)c(Nc2ncnc3cnc(N4CCN(C)CC4)nc23)c1 [III-299] |
| 3 | Cc1ccc(C(=O)Nc2cccc(C(C)(C)C#N)c2)cc1Nc1ncnc2cnc(N3CCCN(C)CC3)nc12 [III-180] |
| 3 | Cc1ccc(C(=O)Nc2cc(C(C)(C)C)on2)cc1Nc1ncnc2cnc(N3CCC(N4CCCCC4)CC3)nc12 [III-485] |
| 5 | Cc1ccc(C(=O)Nc2cc(C(C)(C)C)n[nH]2)cc1Nc1ncnc2c(N)nc(N3CCN(C4CCCC4)CC3)nc12 [I-39] |
| 4 | Cc1ccc(C(=O)Nc2cc(CN3CCCC3)cc(C(F)(F)F)c2)cc1Nc1ncnc2cnc(N3CCC3)nc12 [III-100] |
| 1 | CN(C)c1ncc2ncnc(Nc3cc(C(=O)Nc4cc(C(C)(C)C)on4)ccc3F)c2n1 [III-93] |
| 1 | Cc1ccc(C(=O)Nc2ccnc(C(C)(C)C)c2)cc1Nc1ncnc2cnc(NC3CCN(C)CC3)nc12 [III-595] |
| 7 | COc1ccc(NC(=O)c2ccc(C)c(Nc3ncnc4cnc(N5CCC(N6CCCCC6)CC5)nc34)c2)cc1C(F)(F)F [III-556] |
| 2 | COc1ncc2ncnc(Nc3cc(C(=O)Nc4cc(N(C)CCN(C)C)cc(C(F)(F)F)c4)ccc3C)c2n1 [III-571] |
| > 10000 | Cc1ccc(C(=O)NC2CCCCC2)cc1Nc1ncnc2cnc(N3CCCCC3)nc12 [III-215] |
| 3 | Cc1ccc(C(=O)Nc2cc(C(C)(C)C)n[nH]2)cc1Nc1ncnc2c(N)nc(N3CCN(CC4CCCN(C)C4)CC3)nc12 (centres unmarked) [I-40] |
| 3 | CCN(CC)c1ncc2ncnc(Nc3cc(C(=O)Nc4cc(OCCN(C)C)cc(C(F)(F)F)c4)ccc3C)c2n1 [III-157] |
| 14 | CN1CCN(c2nc(N)c3ncnc(Nc4cc(C(=O)Nc5cccc(C(F)(F)F)c5)ccc4Cl)c3n2)CC1 [I-23] |
| 2 | COCCN(C)c1ncc2ncnc(Nc3cc(C(=O)Nc4ccc(OC)c(C(F)(F)F)c4)ccc3F)c2n1 [III-30] |
| 1 | Cc1ccc(C(=O)Nc2cccc(OC(F)(F)F)c2)cc1Nc1ncnc2cnc(N3CCOCC3)nc12 [III-410] |
| 7 | Cc1ccc(NC(=O)c2cccc(C(F)(F)F)c2)cc1Nc1ncnc2c(N)nc(N3C[C@H](C)NC[C@H]3C)nc12 [II-13] |
| 3 | COc1ccc(NC(=O)c2ccc(F)c(Nc3ncnc4cnc(N5CCN(C(C)C)CC5)nc34)c2)cc1C(F)(F)F [III-403] |
